# Several values for one entry are separate records, joined by “and”; a condition that tells them apart may be missing. Identical values can stand only once.
# Type: in vivo, NIH/Swiss mice
# Conditions: 30 nmol/kg
# Description: In FIG. 3A, bars represent mean±sd, n=6-10. […] Gavage (1.5 g/kg) was given at t=0, Sample was taken at t=30 min. […] In FIG. 3B, points represent mean±sem, n=8-15.
# Peptide was injected IP at t=−5 minutes into 4-hour fasted NIH/Swiss female mice. […] In FIG. 17 points represent mean+/−sem. […] Samples were taken at t=60, t=120 and t=180.
row,SMILES,OGTT/GL (%)
1,CC[C@H](C)[C@H](NC(=O)[C@H](CO)NC(=O)[C@H](Cc1ccc(O)cc1)NC(=O)[C@H](CC(=O)O)NC(=O)[C@H](CO)NC(=O)[C@@H](NC(=O)[C@H](Cc1ccccc1)NC(=O)[C@@H](NC(=O)CNC(=O)[C@H](CCC(=O)O)NC(=O)[C@H](C)NC(=O)[C@@H](N)Cc1ccc(O)cc1)[C@@H](C)O)[C@@H](C)CC)C(=O)N[C@@H](C)C(=O)N[C@@H](CCSC)C(=O)N[C@@H](CC(=O)O)C(=O)N[C@@H](CCCCN)C(=O)N[C@H](C(=O)N[C@@H](Cc1c[nH]cn1)C(=O)N[C@@H](CCC(N)=O)C(=O)N[C@@H](CCC(N)=O)C(=O)N[C@@H](CC(=O)O)C(=O)N[C@@H](Cc1ccccc1)C(=O)N[C@H](C(=O)N[C@@H](CC(N)=O)C(=O)N[C@@H](Cc1c[nH]c2ccccc12)C(=O)N[C@@H](CC(C)C)C(=O)N[C@@H](CC(C)C)C(=O)N[C@@H](C)C(=O)N[C@@H](CCC(N)=O)C(=O)N[C@@H](CCCCN)C(=O)N1CCC[C@H]1C(=O)N[C@@H](CCCCN)C(=O)N[C@@H](CCCCN)C(=O)N[C@H](C(=O)N[C@@H](CCCNC(=N)N)C(=O)N[C@@H](Cc1ccc(O)cc1)C(=O)N[C@@H](CO)C(N)=O)[C@@H](C)CC)C(C)C)[C@@H](C)CC [0601GIP4327],"−7, 30%"
2,CC[C@H](C)[C@H](NC(=O)[C@H](CO)NC(=O)[C@H](Cc1ccc(O)cc1)NC(=O)[C@H](CC(=O)O)NC(=O)[C@H](CO)NC(=O)[C@@H](NC(=O)[C@H](Cc1ccccc1)NC(=O)[C@@H](NC(=O)CNC(=O)[C@H](CCC(=O)O)NC(=O)[C@H](C)NC(=O)[C@@H](N)Cc1ccc(O)cc1)[C@@H](C)O)[C@@H](C)CC)C(=O)N[C@@H](C)C(=O)N[C@@H](CCSC)C(=O)N[C@@H](CC(=O)O)C(=O)N[C@@H](CCCCN)C(=O)N[C@H](C(=O)N[C@@H](Cc1c[nH]cn1)C(=O)N[C@@H](CCC(N)=O)C(=O)N[C@@H](CCC(N)=O)C(=O)N[C@@H](CC(=O)O)C(=O)N[C@@H](Cc1ccccc1)C(=O)N[C@H](C(=O)N[C@@H](CC(N)=O)C(=O)N[C@@H](Cc1c[nH]c2ccccc12)C(=O)N[C@@H](CC(C)C)C(=O)N[C@@H](CC(C)C)C(=O)N[C@@H](C)C(=O)N[C@@H](CCC(N)=O)C(=O)N[C@@H](CCCCN)C(=O)N[C@H](C(=O)N[C@@H](CO)C(=O)N1CCC[C@H]1C(=O)N[C@@H](CCCNC(=N)N)C(=O)N1CCC[C@H]1C(=O)N1CCC[C@H]1C(=O)N[C@@H](CO)C(N)=O)[C@@H](C)O)C(C)C)[C@@H](C)CC [0601GIP4328],"−2, 30%"
3,CC[C@H](C)[C@H](NC(=O)[C@H](CO)NC(=O)[C@H](Cc1ccc(O)cc1)NC(=O)[C@H](CC(=O)O)NC(=O)[C@H](CO)NC(=O)[C@@H](NC(=O)[C@H](Cc1ccccc1)NC(=O)[C@@H](NC(=O)CNC(=O)[C@H](CCC(=O)O)NC(=O)[C@H](C)NC(=O)[C@@H](N)Cc1ccc(O)cc1)[C@@H](C)O)[C@@H](C)CC)C(=O)N[C@@H](C)C(=O)N[C@@H](CCSC)C(=O)N[C@@H](CC(=O)O)C(=O)N[C@@H](CCCCN)C(=O)N[C@H](C(=O)N[C@@H](Cc1c[nH]cn1)C(=O)N[C@@H](CCC(N)=O)C(=O)N[C@@H](CCC(N)=O)C(=O)N[C@@H](CC(=O)O)C(=O)N[C@@H](Cc1ccccc1)C(=O)N[C@H](C(=O)N[C@@H](CC(N)=O)C(=O)N[C@@H](Cc1c[nH]c2ccccc12)C(=O)N[C@@H](CC(C)C)C(=O)N[C@@H](CC(C)C)C(=O)N[C@@H](C)C(=O)N[C@@H](CCC(N)=O)C(=O)N[C@@H](CCCCN)C(=O)N[C@H](C(=O)N[C@@H](CO)C(=O)N1CCC[C@H]1C(=O)N[C@@H](CCCNC(=N)N)C(=O)N1CCC[C@H]1C(=O)N1CCC[C@H]1C(=O)N[C@@H](CO)C(=O)N[C@@H](CO)C(N)=O)[C@@H](C)O)C(C)C)[C@@H](C)CC [0601GIP4401],"1, 30%"
4,CC[C@H](C)[C@H](NC(=O)[C@H](CO)NC(=O)[C@H](Cc1ccc(O)cc1)NC(=O)[C@H](CC(=O)O)NC(=O)[C@H](CO)NC(=O)[C@@H](NC(=O)[C@H](Cc1ccccc1)NC(=O)[C@@H](NC(=O)CNC(=O)[C@H](CCC(=O)O)NC(=O)CCNC(=O)[C@@H](N)Cc1ccc(O)cc1)[C@@H](C)O)[C@@H](C)CC)C(=O)N[C@@H](C)C(=O)N[C@@H](CCSC)C(=O)N[C@@H](CC(=O)O)C(=O)N[C@@H](CCCCN)C(=O)N[C@H](C(=O)N[C@@H](Cc1c[nH]cn1)C(=O)N[C@@H](CCC(N)=O)C(=O)N[C@@H](CCC(N)=O)C(=O)N[C@@H](CC(=O)O)C(=O)N[C@@H](Cc1ccccc1)C(=O)N[C@H](C(=O)N[C@@H](CC(N)=O)C(=O)N[C@@H](Cc1c[nH]c2ccccc12)C(=O)N[C@@H](CC(C)C)C(=O)N[C@@H](CC(C)C)C(=O)N[C@@H](C)C(=O)N[C@@H](CCC(N)=O)C(=O)N[C@@H](CCCCN)C(=O)N1CCC[C@H]1C(=O)N[C@@H](CO)C(=O)N[C@@H](CO)C(=O)NCC(=O)N[C@@H](C)C(=O)N1CCC[C@H]1C(=O)N1CCC[C@H]1C(=O)N1CCC[C@H]1C(=O)N[C@@H](CO)C(N)=O)C(C)C)[C@@H](C)CC [0601GIP4458],"−14, 30%"
5,CC[C@H](C)[C@H](NC(=O)[C@H](CO)NC(=O)[C@H](Cc1ccc(O)cc1)NC(=O)[C@H](CC(=O)O)NC(=O)[C@H](CO)NC(=O)[C@@H](NC(=O)[C@H](Cc1ccccc1)NC(=O)[C@@H](NC(=O)CNC(=O)[C@H](CCC(=O)O)NC(=O)[C@@H](CCC(=O)O)NC(=O)[C@@H](N)Cc1ccc(O)cc1)[C@@H](C)O)[C@@H](C)CC)C(=O)N[C@@H](C)C(=O)N[C@@H](CCSC)C(=O)N[C@@H](CC(=O)O)C(=O)N[C@@H](CCCCN)C(=O)N[C@H](C(=O)N[C@@H](Cc1c[nH]cn1)C(=O)N[C@@H](CCC(N)=O)C(=O)N[C@@H](CCC(N)=O)C(=O)N[C@@H](CC(=O)O)C(=O)N[C@@H](Cc1ccccc1)C(=O)N[C@H](C(=O)N[C@@H](CC(N)=O)C(=O)N[C@@H](Cc1c[nH]c2ccccc12)C(=O)N[C@@H](CC(C)C)C(=O)N[C@@H](CC(C)C)C(=O)N[C@@H](C)C(=O)N[C@@H](CCC(N)=O)C(=O)N[C@@H](CCCCN)C(=O)N1CCC[C@H]1C(=O)N[C@@H](CO)C(=O)N[C@@H](CO)C(=O)NCC(=O)N[C@@H](C)C(=O)N1CCC[C@H]1C(=O)N1CCC[C@H]1C(=O)N1CCC[C@H]1C(=O)N[C@@H](CO)C(N)=O)C(C)C)[C@@H](C)CC [0601GIP4703],"−18, 30%"
6,CC[C@H](C)[C@H](NC(=O)[C@H](CO)NC(=O)[C@H](Cc1ccc(O)cc1)NC(=O)[C@H](CC(=O)O)NC(=O)[C@H](CO)NC(=O)[C@@H](NC(=O)[C@H](Cc1ccccc1)NC(=O)[C@@H](NC(=O)CNC(=O)[C@H](CCC(=O)O)NC(=O)[C@H](C)NC(=O)[C@H](Cc1ccc(O)cc1)NC(=O)[C@@H](N)CC(C)C)[C@@H](C)O)[C@@H](C)CC)C(=O)N[C@@H](C)C(=O)N[C@@H](CCSC)C(=O)N[C@@H](CC(=O)O)C(=O)N[C@@H](CCCCN)C(=O)N[C@H](C(=O)N[C@@H](Cc1c[nH]cn1)C(=O)N[C@@H](CCC(N)=O)C(=O)N[C@@H](CCC(N)=O)C(=O)N[C@@H](CC(=O)O)C(=O)N[C@@H](Cc1ccccc1)C(=O)N[C@H](C(=O)N[C@@H](CC(N)=O)C(=O)N[C@@H](Cc1c[nH]c2ccccc12)C(=O)N[C@@H](CC(C)C)C(=O)N[C@@H](CC(C)C)C(=O)N[C@@H](C)C(=O)N[C@@H](CCC(N)=O)C(=O)N[C@@H](CCCCN)C(=O)N1CCC[C@H]1C(=O)N[C@@H](CCCCN)C(=O)N[C@@H](CCCCN)C(=O)N[C@H](C(=O)N[C@@H](CCCNC(=N)N)C(=O)N[C@@H](Cc1ccc(O)cc1)C(=O)N[C@@H](CO)C(N)=O)[C@@H](C)CC)C(C)C)[C@@H](C)CC [0601GIP4799],"−10, % and −10, 30%"

# Source: patent US8497240B2 (priority 2006, dated 2013)
